Test results: patent US12060349B2, “Glucosylceramide synthase inhibitors” (Genzyme Corporation, priority 2012, dated 2024)
Where two headings read alike, the source gives them in different places.

What was measured:
B16 mouse melanoma cells = assay: cell viability in the B16 cell-based assay (Viability, B16 IC50)
Method in brief: (§1)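 Two melanoma lines, mouse B16 and human C32, were treated and surface GM3 quantified by antibody immunofluorescence for IC50. A parallel viability readout gives the concentration killing 50% of cells, with values over 10 indicating no cell death.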

[1] = tested on: GM3 expression on the cell surface, C32 human melanoma cells; assay: cell based phenotypic assay, cell surface GM3 by antibody mediated immunofluorescence, C32 (GM3 C32 IC50); conditions: 50% inhibition of GM3 expression on the cell surface
Method in brief: (§2)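 B16 mouse and C32 human melanoma cells; cell-surface GM3 measured by antibody-mediated immunofluorescence, giving IC50.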

[2] = target: T1, glucosylceramide synthase (Homo sapiens, UniProt Q16739); assay: microsomal assay measuring conversion of ceramide to glucosylceramide by HPLC (GCS IC50); type: biochemical; conditions: concentration causing 50% inhibition of glucosylceramide synthase activity
T1 construct: Microsomes were isolated from A375 human melanoma cells; endogenous in cells; host or cells: A375 human melanoma cells (microsomal fraction, 100,000 g pellet)
T1 sequence (Q16739 1-394): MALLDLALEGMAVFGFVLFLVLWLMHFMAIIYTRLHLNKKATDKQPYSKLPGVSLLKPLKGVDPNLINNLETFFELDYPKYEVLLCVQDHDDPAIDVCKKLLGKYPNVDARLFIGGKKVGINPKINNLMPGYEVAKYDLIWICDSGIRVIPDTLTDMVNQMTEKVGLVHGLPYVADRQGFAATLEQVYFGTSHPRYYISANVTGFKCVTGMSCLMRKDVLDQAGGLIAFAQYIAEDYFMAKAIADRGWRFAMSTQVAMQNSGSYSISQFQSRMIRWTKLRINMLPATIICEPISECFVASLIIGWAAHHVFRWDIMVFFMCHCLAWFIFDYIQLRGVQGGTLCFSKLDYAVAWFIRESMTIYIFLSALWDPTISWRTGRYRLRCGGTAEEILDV
Method in brief: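 Microsomal preparation assayed for glucosylceramide synthase by direct HPLC measurement of ceramide conversion to glucosylceramide. GCS IC50 is the compound concentration giving 50% inhibition of enzyme activity.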

[3] = tested on: GM3 expression on the cell surface, B16 mouse melanoma cells; assay: cell based phenotypic assay, cell surface GM3 by antibody mediated immunofluorescence, B16 (GM3 B16 IC50); conditions: 50% inhibition of GM3 expression on the cell surface
Method in brief: as §2

C32 human melanoma cells = assay: cell viability in the C32 cell-based assay (Viability, C32 IC50); conditions: concentration causing 50% cell death, values greater than 10 represent a lack of cell death
Method in brief: as §1

[4] = Mus musculus, B16, B16 cells, concentration causing 50% cell death, values greater than 10 represent a lack of cell death, read-out: Viability, B16 IC50
[5] = Homo sapiens, C32 human melanoma cells, read-out: GM3 C32 IC50
[6] = Mus musculus, B16 mouse melanoma cells, read-out: GM3 B16 IC50
[7] = Homo sapiens, C32, C32 cells, read-out: Viability, C32 IC50
[8] = Mus musculus, B16, read-out: Viability, B16 IC50
[9] = Homo sapiens, read-out: GM3 C32 IC50, C32 human melanoma cells
[10] = Mus musculus, read-out: GM3 B16 IC50, B16 mouse melanoma cells
[11] = Homo sapiens, C32, read-out: Viability, C32 IC50, C32 cells
[12] = B16 cells, concentration causing 50% cell death, values greater than 10 represent a lack of cell death, read-out: Viability, B16 IC50
[13] = C32 human melanoma cells, read-out: GM3 C32 IC50
[14] = B16 mouse melanoma cells, read-out: GM3 B16 IC50
[15] = C32 cells, read-out: Viability, C32 IC50

IC50 [1, 5]	IC50 [3, 6]	Compound	IC50 (B16 mouse melanoma cells; [4])	IC50 [2]	IC50 (C32 human melanoma cells; [7])	IC50 (B16 mouse melanoma cells; [8])	IC50 [1, 9]	IC50 [3, 10]	IC50 (C32 human melanoma cells; [11])	IC50 (B16 mouse melanoma cells; [12])	IC50 [1, 13]	IC50 [3, 14]	IC50 (C32 human melanoma cells; [15])
0.315 nM	6.84 nM	CC(C)(C)CCS(=O)(=O)c1ccc(-c2ccc(C(C)(C)NC(=O)NC3(C)CCN4CCC3CC4)cc2)cc1 (stereo not shown) [Example 248, 1-(2-(4′-((3,3-Dimethylbutyl)sulfonyl)-[1,1′-biphenyl]-4-yl)propan-2-yl)-3-(4-methyl-1-azabicyclo[3.2.2]nonan-4-yl)urea]	7730 nM	0.804 nM	1000 nM	–	–	–	–	–	–	–	–
–	–	COCCCOc1ccc(-c2nc(C(C)(C)NC(=O)OC3CN4CCC3CC4)cs2)cc1 (stereo not shown) [Example 340, Quinuclidin-3-yl (2-(2-(4-(3-methoxypropoxy)phenyl)thiazol-4-yl)-propan-2-yl)carbamate]	–	170 nM	–	≥ 10000 nM	42.6 nM	197 nM	≥ 10000 nM	–	–	–	–
0.095 nM	15.3 nM	CC1(NC(=O)C2CCN(c3cc(-c4ccc(F)cc4)ccn3)CC2)CCN2CCC1CC2 (stereo not shown) [Example 106, 1-(4-(4-Fluorophenyl)pyridin-2-yl)-N-(4-methyl-1-azabicyclo[3.2.2]nonan-4-yl)piperidine-4-carboxamide]	6970 nM	0.858 nM	9020 nM	–	–	–	–	–	–	–	–
0.726 nM	36 nM	CC1(NC(=O)C2(F)CCN(c3cncc(Oc4ccc(F)cc4)n3)CC2)CCN2CCC1CC2 (stereo not shown) [Example 126, 4-Fluoro-1-(6-(4-fluorophenoxy)pyrazin-2-yl)-N-(4-methyl-1-azabicyclo[3.2.2]nonan-4-yl)piperidine-4-carboxamide]	6260 nM	1.57 nM	1000 nM	–	–	–	–	–	–	–	–
–	–	COCCOc1ccc(-c2ccc(C(C)(C)NC(=O)OC3CN4CCC3CC4)cc2)cc1 (stereo not shown) [Example 155, Quinuclidin-3-yl (2-(4′-(2-methoxyethoxy)-[1,1′-biphenyl]-4-yl)propan-2-yl)carbamate]	–	3.48 nM	–	1000 nM	0.657 nM	38.6 nM	215 nM	–	–	–	–
–	–	CN(C)C(=O)c1ccc(Oc2ccc(C(C)(C)NC(=O)NC3(C)CCN4CCC3CC4)cc2)cc1 (stereo not shown) [Example 290, N,N-Dimethyl-4-(4-(2-(3-(4-methyl-1-aza-bicyclo[3.2.2]nonan-4-yl)ureido)propan-2-yl)phenoxy)benzamide]	–	19.1 nM	–	–	–	–	–	≥ 10000 nM	26.8 nM	2580 nM	3160 nM
0.0479 nM	47.5 nM	CC1(NC(=O)C2CCN(c3ncc(F)c(-c4ccc(F)cc4)n3)CC2)CCN2CCC1CC2 (stereo not shown) [Example 55, 1-(5-Fluoro-4-(4-fluorophenyl)pyrimidin-2-yl)-N-(4-methyl-1-azabicyclo[3.2.2]nonan-4-yl)piperidine-4-carboxamide]	3740 nM	0.736 nM	100 nM	–	–	–	–	–	–	–	–
–	–	Quinuclidin-3-yl (2-(4′-((2-methoxyethoxy)methyl)-[1,1′-biphenyl]-3-yl)propan-2-yl)carbamate [Example 203]	–	29.6 nM	–	–	–	–	–	≥ 10000 nM	6.53 nM	96.3 nM	1780 nM
0.062 nM	32.9 nM	CC1(NC(=O)C2CCN(c3nccc(-c4ccc(F)c(F)c4)n3)CC2)CCN2CCC1CC2 (stereo not shown) [Example 64, 1-(4-(3,4-Difluorophenyl)pyrimidin-2-yl)-N-(4-methyl-1-azabicyclo[3.2.2]nonan-4-yl)piperidine-4-carboxamide]	3420 nM	1.7 nM	5530 nM	–	–	–	–	–	–	–	–
0.17 nM	40.5 nM	COCCOCc1ccc(-c2nc(N3CCC(C(=O)NC4(C)CCN5CCC4CC5)CC3)ncc2F)cc1 (stereo not shown) [Example 58, 1-(5-Fluoro-4-(4-((2-methoxyethoxy)methyl)phenyl)pyrimidin-2-yl)-N-(4-methyl-1-azabicyclo[3.2.2]nonan-4-yl)piperidine-4-carboxamide]	≥ 10000 nM	3.39 nM	1000 nM	–	–	–	–	–	–	–	–
0.109 nM	26.5 nM	COC1(C(=O)NC2(C)CCN3CCC2CC3)CCN(c2nccc(-c3ccc(F)cc3)n2)CC1 (stereo not shown) [Example 100, 1-(4-(4-Fluorophenyl)pyrimidin-2-yl)-4-methoxy-N-(4-methyl-1-azabicyclo[3.2.2]nonan-4-yl)piperidine-4-carboxamide]	1900 nM	3.68 nM	1000 nM	–	–	–	–	–	–	–	–
1.01 nM	94.8 nM	CC(C)(NC(=O)OC1CCN2CCC1CC2)c1ccc(-c2ccc(OCCC3COC3)cc2)cc1 (stereo not shown) [Example 195, 1-Azabicyclo[3.2.2]nonan-4-yl (2-(4′-(2-(oxetan-3-yl)ethoxy)-[1,1′-biphenyl]-4-yl)propan-2-yl)carbamate]	8030 nM	5.67 nM	100 nM	–	–	–	–	–	–	–	–
0.173 nM	20.9 nM	COCCOc1ccc(-c2nc(N3CCC(C(=O)NC4(C)CCN5CCC4CC5)CC3)ncc2F)cc1 (stereo not shown) [Example 56, 1-(5-Fluoro-4-(4-(2-methoxyethoxy)phenyl)pyrimidin-2-yl)-N-(4-methyl-1-azabicyclo[3.2.2]nonan-4-yl)piperidine-4-carboxamide]	6760 nM	4.63 nM	7420 nM	–	–	–	–	–	–	–	–

Compound	IC50 [1, 5]	IC50 [3, 6]	IC50 (B16 mouse melanoma cells; [4])	IC50 [2]	IC50 (C32 human melanoma cells; [7])	IC50 (B16 mouse melanoma cells; [8])	IC50 [1, 9]	IC50 [3, 10]	IC50 (C32 human melanoma cells; [11])	IC50 (B16 mouse melanoma cells; [12])	IC50 [1, 13]	IC50 [3, 14]	IC50 (C32 human melanoma cells; [15])
CC(C)(NC(=O)NC1(C)CN2CCC1CC2)c1ccc(-c2ccc(C(=O)N3CCOCC3)cc2)cc1 (stereo not shown) [Example 267, 1-(3-Methylquinuclidin-3-yl)-3-(2-(4′-(morpholine-4-carbonyl)biphenyl-4-yl)propan-2-yl)urea]	119 nM	2770 nM	565 nM	363 nM	≥ 10000 nM	–	–	–	–	–	–	–	–
COCCOCc1ccc(-c2nc(N3CCC(C(=O)NC4(C)CN5CCC4CC5)CC3)ncc2F)cc1 (stereo not shown) [Example 59, 1-(5-Fluoro-4-(4-((2-methoxyethoxy)methyl)phenyl)pyrimidin-2-yl)-N-(3-methylquinuclidin-3-yl)piperidine-4-carboxamide]	0.339 nM	152 nM	≥ 10000 nM	9.18 nM	464 nM	–	–	–	–	–	–	–	–
CC1(NC(=O)C2CCN(c3nccc(-c4ccc(F)cc4)n3)CC2)CN2CCC1CC2 (stereo not shown) [Example 44, 1-(4-(4-Fluorophenyl)pyrimidin-2-yl)-N-(3-methylquinuclidin-3-yl)piperidine-4-carboxamide]	0.205 nM	49.9 nM	9270 nM	1.24 nM	316 nM	–	–	–	–	–	–	–	–
O=C(NC1CN2CCC1CC2)N1CCN(c2ccccc2)CC1 (stereo not shown) [Example 7, 4-Phenyl-N-(quinuclidin-3-yl)piperazine-1-carboxamide]	7080 nM	> 10000 nM	≥ 10000 nM	12200 nM	≥ 10000 nM	–	–	–	–	–	–	–	–
COCc1ccc(-c2ccnc(N3CCC(F)(C(=O)N[C@]4(C)CN5CCC4CC5)CC3)n2)cc1 [Example 81, (S)-4-Fluoro-1-(4-(4-(methoxymethyl)phenyl)pyrimidin-2-yl)-N-(3-methylquinuclidin-3-yl)piperidine-4-carboxamide]	0.222 nM	48.1 nM	≥ 10000 nM	2.3 nM	316 nM	–	–	–	–	–	–	–	–
CCC1(NC(=O)NC(C)(C)C#Cc2ccc(S(=O)(=O)CCC(C)(C)C)cc2)CN2CCC1CC2 (stereo not shown) [Example 338, 1-(4-(4-((3,3-Dimethylbutyl)sulfonyl)phenyl)-2-methylbut-3-yn-2-yl)-3-(3-ethylquinuclidin-3-yl)urea]	0.984 nM	72.1 nM	2150 nM	4.45 nM	1000 nM	–	–	–	–	–	–	–	–
COCCOc1ccc(-c2ccc(C(C)(C)NC(=O)N[C@]3(C)CN4CCC3CC4)cc2)cc1 [Example 158, (S)-1-(2-(4′-(2-Methoxyethoxy)-[1,1′-biphenyl]-4-yl)propan-2-yl)-3-(3-methylquinuclidin-3-yl)urea]	0.529 nM	7.62 nM	631 nM	2.85 nM	631 nM	–	–	–	–	–	–	–	–
